For experiment [1], the system named is Propionibacterium acnes. Description: Antibacterial activity. The format is cell-based.
In experiment [2] the test system is Staphylococcus aureus. Nature of the experiment: Antibacterial activity. The class given is cell-based.

With `CC1(C)CC(C)(C)CC(C)(N)C1` [neramexane, 1-amino-1,3,3,5,5-pentamethylcyclohexane], the antibacterial activity result in experiment [1] and in experiment [2] was “exhibits antibacterial activity” in each case.

The values are drawn from patent US20130165522A1, “GEL FORMULATIONS FOR THE TOPICAL USE OF 1-AMINO-ALKYLCYCLOHEXANE DERIVATIVES” (MERZ PHARMA GmbH & CO. KGaA, priority 2010, published 2013).
